Data published in patent publication US7541367B2, “3-benzoimidazolyl-pyrazolopyridines useful in treating kinase disorders” (Janssen Pharmaceutica, N.V., priority 2005, dated 2009).

What was measured:
Aurora-A = biological target: T1, Aurora-A (Mus musculus, UniProt P97477); assay: Aurora-A kinase screening assay (33P-ATP FlashPlate); format: biochemical; details: 10 μM ATP, 1 hr at 30° C;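 further: His-tagged mouse Aurora-A phosphorylating a biotinylated peptide captured on streptavidin plates, read as 33P uptake by scintillation counting, 1% DMSO, inhibition scaled between per-plate maximum and minimum signals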
T1 construct: polyhistidine (N)
T1 sequence (P97477 1-395): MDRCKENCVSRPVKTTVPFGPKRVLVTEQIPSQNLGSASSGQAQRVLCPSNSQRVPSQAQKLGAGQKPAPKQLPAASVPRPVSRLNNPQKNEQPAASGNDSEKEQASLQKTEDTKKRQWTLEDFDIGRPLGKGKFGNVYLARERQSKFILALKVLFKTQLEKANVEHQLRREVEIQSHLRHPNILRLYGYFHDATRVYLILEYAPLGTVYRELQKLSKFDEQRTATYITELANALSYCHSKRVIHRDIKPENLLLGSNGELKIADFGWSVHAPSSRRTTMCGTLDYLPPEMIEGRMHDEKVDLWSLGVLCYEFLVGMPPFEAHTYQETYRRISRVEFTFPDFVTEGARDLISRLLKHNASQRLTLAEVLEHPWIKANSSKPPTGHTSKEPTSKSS

RET = biological target: T2, RET (Homo sapiens, UniProt P07949); assay: RET kinase screening assay (33P-ATP FlashPlate); format: biochemical; details: human RET kinase domain; 10 μM ATP; 1 hr at 30° C;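 further: biotinylated peptide substrate captured on streptavidin FlashPlate, 33P phosphate transfer read by scintillation counting, 1% DMSO, lower incorporation means inhibition, percent relative to per-plate maximum and minimum signals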
T2 construct: polyhistidine (N)
T2 sequence (P07949 658-1114 limits assumed): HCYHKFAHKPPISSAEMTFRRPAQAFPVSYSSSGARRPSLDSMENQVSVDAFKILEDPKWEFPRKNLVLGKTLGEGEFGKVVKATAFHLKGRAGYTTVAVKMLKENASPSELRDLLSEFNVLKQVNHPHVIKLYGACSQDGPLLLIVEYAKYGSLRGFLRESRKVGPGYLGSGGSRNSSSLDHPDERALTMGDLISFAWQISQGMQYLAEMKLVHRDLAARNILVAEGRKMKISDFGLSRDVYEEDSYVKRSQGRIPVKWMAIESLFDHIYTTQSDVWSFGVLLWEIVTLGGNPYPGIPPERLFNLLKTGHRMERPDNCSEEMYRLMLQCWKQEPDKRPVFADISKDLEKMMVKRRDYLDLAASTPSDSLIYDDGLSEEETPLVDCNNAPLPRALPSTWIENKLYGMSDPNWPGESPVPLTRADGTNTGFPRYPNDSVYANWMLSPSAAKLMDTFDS

HCT-116 colon carcinoma = assay: Cell Proliferation Inhibition Assay (14C-thymidine incorporation), HCT-116; format: cell-based; details: Homo sapiens;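 further: proliferation measured as methyl 14C-thymidine uptake into new DNA, counted in 96-well scintillating microplates, compared with DMSO-only control wells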
CDK1 = biological target: T3, CDK1 (Homo sapiens, UniProt P06493); assay: CDK-1 kinase screening assay (33P-ATP FlashPlate); format: biochemical; details: human CDK1 with cyclin B; 10 μM ATP; 1 hr at 30° C
T3 construct: purchased New England Biolabs, Beverly, Mass; 6020; host or cells: insect cells
T3 sequence (P06493 whole entry): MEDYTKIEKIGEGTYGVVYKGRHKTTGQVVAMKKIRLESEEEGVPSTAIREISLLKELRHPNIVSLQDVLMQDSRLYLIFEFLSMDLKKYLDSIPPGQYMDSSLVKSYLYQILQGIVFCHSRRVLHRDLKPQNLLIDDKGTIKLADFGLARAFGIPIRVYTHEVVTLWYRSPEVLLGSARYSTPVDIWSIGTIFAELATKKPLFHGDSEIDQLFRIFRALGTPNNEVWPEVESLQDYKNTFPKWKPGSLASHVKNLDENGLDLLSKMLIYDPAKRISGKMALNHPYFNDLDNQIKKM
T3 sequence (P14635 whole entry partner): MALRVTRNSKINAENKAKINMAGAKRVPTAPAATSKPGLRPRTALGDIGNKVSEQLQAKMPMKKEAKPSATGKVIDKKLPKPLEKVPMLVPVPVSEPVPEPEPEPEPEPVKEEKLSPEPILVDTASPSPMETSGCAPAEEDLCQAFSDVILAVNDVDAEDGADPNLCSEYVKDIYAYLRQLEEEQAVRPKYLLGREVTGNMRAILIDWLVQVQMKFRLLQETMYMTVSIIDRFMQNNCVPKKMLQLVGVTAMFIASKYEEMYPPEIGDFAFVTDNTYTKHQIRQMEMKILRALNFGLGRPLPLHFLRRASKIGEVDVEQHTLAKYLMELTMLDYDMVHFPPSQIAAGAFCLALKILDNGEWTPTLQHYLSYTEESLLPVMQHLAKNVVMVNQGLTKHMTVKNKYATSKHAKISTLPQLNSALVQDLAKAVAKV
Procedure: A kinase reaction mixture was prepared containing 50 mM Tris-HCl pH=8, 10 mM MgCl2, 0.1 mM […], 1 mM DTT, 10 μM ATP, 0.025 μM biotinylated histone-H1 peptide substrate and 0.2 μCuries per well ^33P-γ-ATP (2000-3000 Ci/mmol). 70 μL of the kinase reaction mixture was dispensed into the well of a streptavidin coated FlashPlate™ (Cat. # SMP103, NEN, Boston, Mass.).
Test compound stock in 100% DMSO (1 μL) was added to the wells resulting in a final concentration of 1% DMSO in the reaction with a 100 μL final reaction volume. Each enzyme was diluted in 50 mM Tris-HCl pH=8.0, 0.11% BSA and 30 μL was added to each well to initiate the reaction. The reaction was incubated for one hour at 30° C. At the end of the 1 hr incubation, the reaction was terminated by aspirating the mixture from the plate and washing the wells twice with PBS containing 100 mM EDTA. The biotinylated peptide substrate became immobilized on the Flashplate™ and the incorporation of ^33P-γ-ATP was measured by reading the plate on a scintillation counter. Inhibition of the enzymatic activity was measured by observing a reduced amount of ^33P-γ-ATP incorporated into the immobilized peptide.
The CDK1 enzyme was isolated from insect cells expressing both the human CDK1 catalytic subunit (Accession number NM_001786) and its positive regulatory subunit cyclin B (New England Biolabs, Beverly, Mass.; Cat. # 6020). The assay used 30 ng of the N-terminal biotinylated peptide biotin-[…]-amide (Cyclin dependent kinase 1) per well.
A maximum and minimum signal for the assay was determined on each plate. The percent inhibition of a test compound was calculated according to the formula: […]
For a series of test concentrations, the IC50 was derived by graphing percent inhibition against the log of the concentrations tested for a given compound with results shown in Table 1.
For compounds with multiple values, each value represents a separate assay result.

[1] = tested on: HeLa cervical adenocarcinoma; assay: Cell Proliferation Inhibition Assay (14C-thymidine incorporation), HeLa; format: cell-based; details: Homo sapiens, HeLa cells;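 further: test compound in DMSO added to cells seeded in scintillating 96-well plates, DMSO-only wells as control, uptake of methyl 14C-thymidine into new DNA counted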
A375 malignant melanoma = assay: Cell Proliferation Inhibition Assay (14C-thymidine incorporation), A375; format: cell-based; details: Homo sapiens, A-375, A375 cells;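 further: proliferation measured by radiolabelled thymidine uptake into new DNA, counted in scintillating 96-well plates, compound-treated wells compared with DMSO-only control wells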
VEGF-R2 = biological target: T4, VEGF-R2 (Rattus norvegicus, UniProt O08775); assay: VEGF-R2 kinase screening assay (33P-ATP FlashPlate); format: biochemical; details: rat VEGF-R2 kinase domain; 10 μM ATP; 1 hr at 30° C;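 further: Read-out is ³³P incorporation from ³³P-γ-ATP into biotinylated peptide substrate captured on streptavidin FlashPlate, counted by scintillation, 1% DMSO final, inhibition scaled between per-plate maximum and minimum signals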
T4 construct: polyhistidine (N)
T4 sequence (O08775 786-1343): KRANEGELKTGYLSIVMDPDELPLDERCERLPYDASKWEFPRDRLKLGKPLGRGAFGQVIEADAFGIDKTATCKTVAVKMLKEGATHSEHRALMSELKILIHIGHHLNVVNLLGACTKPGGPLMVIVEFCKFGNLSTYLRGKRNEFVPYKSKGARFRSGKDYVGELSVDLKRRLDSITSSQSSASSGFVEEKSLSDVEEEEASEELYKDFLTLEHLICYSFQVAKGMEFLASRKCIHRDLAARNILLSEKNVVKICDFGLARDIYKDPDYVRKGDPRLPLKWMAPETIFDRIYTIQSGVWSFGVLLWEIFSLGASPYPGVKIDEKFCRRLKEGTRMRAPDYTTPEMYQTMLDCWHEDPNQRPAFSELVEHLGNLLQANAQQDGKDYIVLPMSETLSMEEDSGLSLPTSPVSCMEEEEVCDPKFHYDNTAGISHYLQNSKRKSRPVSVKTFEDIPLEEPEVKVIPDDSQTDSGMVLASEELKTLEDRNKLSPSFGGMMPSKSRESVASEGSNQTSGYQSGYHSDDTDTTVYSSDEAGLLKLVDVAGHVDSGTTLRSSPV

HER2 = biological target: T5, HER2 (Homo sapiens, UniProt P04626); assay: HER2 kinase screening assay (33P-ATP FlashPlate); format: biochemical; details: GST-HIS6 HER-2 aa 679 to 1255; 10 μM ATP; 1 hr at 30° C;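 further: Biotin-poly(GT) 4:1 peptide captured on streptavidin FlashPlate, 33P transfer from γ-ATP read by scintillation counting, lower incorporation means inhibition, 1% DMSO final, 100 µL reaction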
T5 construct: GST (Glutathione-S-Transferase) (N); HIS6 (N); thrombin cleavage site (N); purchased Proqinase, Freiburg, Germany
T5 sequence (P04626 679-1255): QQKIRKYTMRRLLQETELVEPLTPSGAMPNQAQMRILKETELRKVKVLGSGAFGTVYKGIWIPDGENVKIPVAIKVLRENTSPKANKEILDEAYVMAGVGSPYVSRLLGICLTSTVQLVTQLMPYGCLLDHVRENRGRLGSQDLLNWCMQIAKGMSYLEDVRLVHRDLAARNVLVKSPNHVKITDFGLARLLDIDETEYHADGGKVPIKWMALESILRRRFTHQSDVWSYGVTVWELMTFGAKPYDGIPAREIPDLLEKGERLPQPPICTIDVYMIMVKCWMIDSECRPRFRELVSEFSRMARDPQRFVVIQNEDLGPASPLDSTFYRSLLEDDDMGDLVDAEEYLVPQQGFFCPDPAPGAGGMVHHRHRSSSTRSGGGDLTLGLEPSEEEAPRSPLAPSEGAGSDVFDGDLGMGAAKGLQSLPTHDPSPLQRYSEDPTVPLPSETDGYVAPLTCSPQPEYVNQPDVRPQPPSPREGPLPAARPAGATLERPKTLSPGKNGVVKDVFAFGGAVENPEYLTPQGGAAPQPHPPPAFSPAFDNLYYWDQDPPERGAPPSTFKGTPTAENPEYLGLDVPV

SMILES	IC50 (Aurora-A)	IC50 (RET)	IC50 (HCT-116 colon carcinoma; HCT-116, HCT-116 cells)	IC50 (CDK1)	IC50 ([1]; HeLa)	IC50 (A375 malignant melanoma)	IC50 (VEGF-R2)	IC50 (HER2)	IC50 (HCT-116 colon carcinoma; HCT-116 cells)	IC50 [1]
c1ccc2c(-c3cnc4[nH]nc(-c5nc6c(CN7CCOCC7)cccc6[nH]5)c4c3)cncc2c1 [Cpd 9, 4-[3-(4-morpholin-4-ylmethyl-1H-benzoimidazol-2-yl)-1H-pyrazolo[3,4-b]pyridin-5-yl]-isoquinoline]	~10 µM	~10 µM	0.0647 µM	0.00845 µM	0.0926 µM	0.084 µM	0.21 µM	–	–	–
CCCCNCc1cncc(-c2cnc3[nH]nc(-c4nc5cc(OC)ccc5[nH]4)c3c2)c1 [Cpd 104, butyl-{5-[3-(5-methoxy-1H-benzoimidazol-2-yl)-1H-pyrazolo[3,4-b]pyridin-5-yl]-pyridin-3-ylmethyl}-amine]	0.245 µM	–	–	0.0008 µM	–	0.0395 µM	0.0179 µM	1.88 µM	0.052 µM	0.085 µM
COCc1cccc2[nH]c(-c3n[nH]c4ncc(-c5cnc6ccccc6c5)cc34)nc12 [Cpd 34, 3-[3-(4-methoxymethyl-1H-benzoimidazol-2-yl)-1H-pyrazolo[3,4-b]pyridin-5-yl]-quinoline]	> 10 µM	~10 µM	–	1.36 µM	1.46 µM	0.0107 µM	0.157 µM	–	–	–
CCCNCc1cncc(-c2cnc3[nH]nc(-c4nc5cc(OC)ccc5[nH]4)c3c2)c1 [Cpd 103, {5-[3-(5-methoxy-1H-benzoimidazol-2-yl)-1H-pyrazolo[3,4-b]pyridin-5-yl]-pyridin-3-ylmethyl}-propyl-amine]	0.27 µM	–	–	0.0004 µM	–	0.0392 µM	0.0476 µM	2.16 µM	0.0335 µM	0.0623 µM
CCN(CC)C(=O)c1cccc2[nH]c(-c3n[nH]c4ncc(-c5cncc6ccccc56)cc34)nc12 [Cpd 19, 2-(5-isoquinolin-4-yl-1H-pyrazolo[3,4-b]pyridin-3-yl)-1H-benzoimidazole-4-carboxylic acid diethylamide]	> 1 µM	–	1.83 µM	0.0534 µM	0.975 µM	1.57 µM	~10 µM	~100 µM	–	–
COCCNCc1cncc(-c2cnc3[nH]nc(-c4nc5cc(N6CCN(C)CC6)ccc5[nH]4)c3c2)c1 [Cpd 86, (2-methoxy-ethyl)-(5-{3-[5-(4-methyl-piperazin-1-yl)-1H-benzoimidazol-2-yl]-1H-pyrazolo[3,4-b]pyridin-5-yl}-pyridin-3-ylmethyl)-amine]	0.428 µM	–	–	0.00517 µM	–	2.49 µM	~0.1 µM	1.05 µM	2.32 µM	2.29 µM
CCCNCc1cncc(-c2cnc3[nH]nc(-c4nc5cc(N6CCN(C)CC6)ccc5[nH]4)c3c2)c1 [Cpd 85, (5-{3-[5-(4-methyl-piperazin-1-yl)-1H-benzoimidazol-2-yl]-1H-pyrazolo[3,4-b]pyridin-5-yl}-pyridin-3-ylmethyl)-propyl-amine]	0.28 µM	–	–	0.00185 µM	–	0.412 µM	0.16 µM	1.84 µM	0.774 µM	0.693 µM
c1ccc2c(-c3cnc4[nH]nc(-c5nc6c(Cn7ccnc7)cccc6[nH]5)c4c3)cncc2c1 [Cpd 12, 4-[3-(4-imidazol-1-ylmethyl-1H-benzoimidazol-2-yl)-1H-pyrazolo[3,4-b]pyridin-5-yl]-isoquinoline]	~10 µM	~100 µM	1.89 µM	0.0415 µM	3.2 µM	4.09 µM	~10 µM	–	–	–
COCc1cccc2[nH]c(-c3n[nH]c4ncc(-c5cccnc5)cc34)nc12 [Cpd 35, 3-(4-methoxymethyl-1H-benzoimidazol-2-yl)-5-pyridin-3-yl-1H-pyrazolo[3,4-b]pyridine]	> 1 µM	–	0.0188 µM	0.0293 µM	0.65 µM	0.0328 µM	0.16 µM	> 100 µM	–	–

More lines, in order of falling IC50 (Aurora-A), values ahead:

IC50 (Aurora-A)	IC50 (RET)	IC50 (HCT-116 colon carcinoma; HCT-116, HCT-116 cells)	IC50 (CDK1)	IC50 ([1]; HeLa)	IC50 (A375 malignant melanoma)	IC50 (VEGF-R2)	IC50 (HER2)	SMILES	IC50 (HCT-116 colon carcinoma; HCT-116 cells)	IC50 [1]
6.74 µM	> 10 µM	0.191 µM	0.0159 µM	0.127 µM	0.118 µM	0.163 µM	–	CCN1CCN(Cc2cccc3[nH]c(-c4n[nH]c5ncc(-c6cncc7ccccc67)cc45)nc23)CC1 [Cpd 10, 4-{3-[4-(4-ethyl-piperazin-1-ylmethyl)-1H-benzoimidazol-2-yl]-1H-pyrazolo[3,4-b]pyridin-5-yl}-isoquinoline]	–	–
1.72 µM	> 10 µM	0.0648 µM	0.00492 µM	0.113 µM	0.0825 µM	1.57 µM	–	c1ccc2c(-c3cnc4[nH]nc(-c5nc6c(CN7CCCC7)cccc6[nH]5)c4c3)cncc2c1 [Cpd 7, 4-[3-(4-pyrrolidin-1-ylmethyl-1H-benzoimidazol-2-yl)-1H-pyrazolo[3,4-b]pyridin-5-yl]-isoquinoline]	–	–
1.37 µM	> 10 µM	0.0285 µM	0.00811 µM	0.0486 µM	0.0292 µM	0.403 µM	–	c1ccc2c(-c3cnc4[nH]nc(-c5nc6c(CN7CCCCC7)cccc6[nH]5)c4c3)cncc2c1 [Cpd 8, 4-[3-(4-piperidin-1-ylmethyl-1H-benzoimidazol-2-yl)-1H-pyrazolo[3,4-b]pyridin-5-yl]-isoquinoline]	–	–
~1 µM	–	0.055 µM	0.0286 µM	0.167 µM	0.0711 µM	~10 µM	> 10 µM	CC(C)(C)NC(=O)c1cccc2[nH]c(-c3n[nH]c4ncc(-c5cncc6ccccc56)cc34)nc12 [Cpd 20, 2-(5-isoquinolin-4-yl-1H-pyrazolo[3,4-b]pyridin-3-yl)-1H-benzoimidazole-4-carboxylic acid tert-butylamide]	–	–
~1 µM	–	2.5 µM	0.425 µM	3.1 µM	1.7 µM	0.238 µM	> 10 µM	CN1CCN(c2ccc3[nH]c(-c4n[nH]c5ncc(Br)cc45)nc3c2)CC1 [Cpd 30, 5-bromo-3-[5-(4-methyl-piperazin-1-yl)-1H-benzoimidazol-2-yl]-1H-pyrazolo[3,4-b]pyridine]	–	–
0.191 µM	–	0.005 µM	0.0875 µM	1.84 µM	0.0201 µM	> 0.01 µM	> 100 µM	COCc1cccc2[nH]c(-c3n[nH]c4ncc(-c5c[nH]c6ncccc56)cc34)nc12 [Cpd 37, 3-(4-methoxymethyl-1H-benzoimidazol-2-yl)-5-(1H-pyrrolo[2,3-b]pyridin-3-yl)-1H-pyrazolo[3,4-b]pyridine]	–	–
